From PubChem BioAssay AID1845213 (Molecular Pharmacology Branch, DTP, NCI, 2023)
Where “and” joins values, the source holds several entries; their conditions need not be identical. Equal values may be shown once. Calls of active or inactive are those of the source. The calls were made as follows: active = viability on the fitted dose curve at most 10% of control; inactive = the rest.

System: NCI-H841 complex tumor spheroid viability
Experiment: Anticancer human tumor NCI-H841 cell line growth inhibition;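 as to IC50: spheroids exposed to compounds for 7 days before readout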;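 as to viability, T/C: spheroids exposed to compounds for 7 days before readout; 100% = DMSO vehicle control wells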
Details: for viability, T/C: stronger effect = lower value
Excerpt: Multicellular complex tumor spheroid response to DNA repair inhibitors in combination with DNA-damaging drugs
This study explores the anticancer activities of DNA-damaging drugs and inhibitors of DNA damage repair, both as single agents and in combinations. Complex tumor spheroids comprised of malignant cells, endothelial cells and mesenchymal stem cells served as an in vitro model for human solid tumors. This model system incorporates physiologically relevant features and patient-derived or established malignant cell lines with clinically relevant genetic alterations from many tumor types. Twenty-six patient-derived or established malignant cell lines were evaluated representing sarcoma, melanoma, small cell lung cancer (SCLC), non-small cell lung cancer (NSCLC), as well as bladder, ovarian and pancreatic cancers. The concentration ranges selected for each drug and investigational agent were based upon clinically achievable concentrations if the clinical Cmax of the agent was known.
Compounds. The drugs and compounds olaparib (NSC753686), talazoparib (NSC767125), berzosertib (NSC777718), elimusertib (NSC800525), nedisertib (NSC802822), VX-984 (NSC792969), AZD-1390 (NSC803789), temozolomide (NSC362856), topotecan (NSC609699), trabectedin (NSC813783), staurosporine (NSC755774), and gemcitabine (NSC613327) were obtained from the National Cancer Institute (NCI) Developmental Therapeutics Program Chemical Repository. The FDA-approved anticancer drug set is available from the Developmental Therapeutics Program at https://dtp.cancer.gov/organization/dscb/obtaining/available_plates.htm. […] The stock solutions were prepared in dimethyl sulfoxide (DMSO, Sigma-Aldrich, St. Louis, MO, cat. D2650) at 400-fold the tested concentration and stored at -70 degrees C. Prior to their use, the stock solutions were diluted in fresh medium and the final DMSO concentration in the assay was 0.25% (v/v). All drugs and investigational agents were tested over a range starting from a high concentration at or near the clinical Cmax and decreasing in half-log increments. If the clinical Cmax for an agent had not been determined, the highest concentration tested was 10 microM.
Cell Lines. The patient-derived cancer cell (PDC) lines: 156681-154-R-J1-PDC, 283228-195-R-J1-PDC, 287954-098-R-J1-PDC, 292921-168-R-J2-PDC, 349418-098-R-PDC, 425362-245-T-J1-PDC, 556581-035-R-J1-PDC, and BL0293-F563-PDC were received from the NCI Patient-Derived Models Repository (PDMR, https://pdmr.cancer.gov). The established cell lines HS-SY-2 (RRID:CVCL_8719), MPNST, and SYO-1 (RRID:CVCL_7146) were obtained from the Sloan Kettering Institute. The alveolar soft parts sarcoma cell line ASPS-1 (RRID:CVCL_S738) was established at the NCI and grown from internal seed stocks. The following established cell lines were purchased from the American Type Culture Collection (ATCC, Manassas, VA): G-401 (ATCC, cat. CRL-1441, RRID:CVCL_0270), SW982 (ATCC, cat. HTB-93, RRID:CVCL_1734), VA-ES-BJ (ATCC, cat. CRL-2138, RRID:CVCL_1785), NCI-H719 (ATCC, cat. CRL-5837, RRID:CVCL_1582), NCI-H196 (ATCC, cat. CRL-5823, RRID:CVCL_1509), NCI-H841 (ATCC, cat. CRL-5845, RRID:CVCL_1595), NCI-H1618 (ATCC, cat. CRL-5879, RRID:CVCL_1480), NCI-H1876 (ATCC, cat. CRL-5902, RRID:CVCL_1503), DMS 114 (ATCC, cat. CRL-2066; RRID:CVCL_1174), NCI-H211 (ATCC, cat. CRL-5824; RRID:CVCL_1529), and SW 1271 (ATCC, cat. CRL-2177, RRID:CVCL_1716). The small cell lung cancer cell line COR-L88 was purchased from Sigma-Aldrich (cat. 92031917-1VL, RRID:CVCL_1141). The non-small cell lung cancer cell lines NCI-H226 (RRID:CVCL_1544) and NCI-H322M (RRID:CVCL_1557) were established at the NCI and grown from internal seed stocks. Pooled donor human umbilical vein endothelial cells (HUVEC, Lonza, cat. CC-2519) and human mesenchymal stem cells (hMSC, Lonza, cat. PT-2501) were purchased from Lonza (Walkersville, MD).
Cell Culture. All cells were maintained in an incubator at 37 degrees C and 5% CO2 with 95% humidity. […]

[1] = compound alone, run of 11/07/2019
[2] = compound alone, run of 12/16/2019

Row | SMILES | viability, T/C (compound 0.0316 µM) | viability, T/C (compound 0.1 µM) | viability, T/C (compound 0.316 µM) | viability, T/C (compound 1 µM) | viability, T/C (compound 3.16 µM) | viability, T/C (compound 10 µM) | IC50 (curve of compound) | viability, T/C (compound 0.03 µM) | viability, T/C (compound 0.0949 µM) | viability, T/C (compound 0.3 µM) | viability, T/C (compound 3 µM) | further results
1 | CC(C)n1c(=O)n(C)c2cnc3cc(F)c(-c4ccc(OCCCN5CCCCC5)nc4)cc3c21 | 96.6% and 93.7% and 101% | 94.6% and 91.3% and 99.4% | 93.6% and 95.8% and 99.8% | 94.1% and 91.1% and 99.3% | 91.6% and 80.8% and 97% | 88.3% and 76.8% and 90.8% | > 10000 nM |  |  |  |  | 
2 | CC1COCCN1c1cc(-c2ccnn2C)c2ccnc(-c3ccn[nH]3)c2n1 (stereo not given) | 77.2% and 68.7% and 83.9% | 16.2% and 27.3% and 39.8% | 4.34% and 9.62% and 7.72% | 1.61% and 3.17% and 2.67% | 1.48% and 2.14% and 1.89% | 1.73% and 2.18% and 2.49% | 52.8 nM and 53.1 nM and 76.6 nM |  |  |  |  | 
3 | CC[C@@]1(O)C(=O)OCc2c1cc1n(c2=O)Cc2cc3c(CN(C)C)c(O)ccc3nc2-1 |  |  |  |  |  |  |  | 2.24% [middle of 10 runs] | 1.86% [middle of 10 runs] | 1.86% [middle of 10 runs] |  | viability, T/C (compound 0.003 µM): 98.1% [middle of 10 runs]; IC50 [1]: 12 nM [middle of 5 runs]; IC50 [2]: 15.8 nM [middle of 4 runs]
4 | CNCc1ccc(-c2cc(-c3nc(-c4ccc(S(=O)(=O)C(C)C)cc4)cnc3N)on2)cc1 |  |  |  |  |  |  | 66 nM and 179 nM and 400 nM | 94.6% and 98.1% and 99.8% | 28.9% and 81.8% and 95.3% | 25.2% and 24% and 63.7% | 3.17% and 1.05% and 2.03% | viability, T/C (compound 0.00949 µM): 100% (2×) and 97.3%; viability, T/C (compound 0.949 µM): 6.79% and 3.39% and 9.67%
5 | COc1cc(C)[nH]c(=O)c1CN1CCc2c(Cl)cc(C(OC)C3COC3)c(Cl)c2C1=O (stereo not given) | 91% and 78.5% and 86.2% | 73.6% and 74.6% | 73.2% and 67.7% | 65% and 42.6% and 61.8% | 60.1% and 38.4% and 55.5% | 54.7% and 35.1% and 51.2% |  |  |  |  |  | outcome (compound 0.1 µM): inactive; outcome (compound 0.316 µM): inactive
6 | COc1cc2c(cc1O)CCNC21CSC2c3c(OC(C)=O)c(C)c4c(c3C(COC1=O)N1C(O)C3Cc5cc(C)c(OC)c(O)c5C(C21)N3C)OCO4 (stereo not given) |  |  |  |  |  |  |  |  |  |  |  | viability, T/C (compound 30 pM): 102% [middle of 10 runs]; viability, T/C (compound 94.9 pM): 99.5% [middle of 10 runs]; viability, T/C (compound 0.000949 µM): 3.1% [middle of 10 runs]; viability, T/C (compound 0.003 µM): 0.11% [middle of 4 runs]; IC50 [2]: 0.258 nM [middle of 10 runs]
7 | COc1ccc([C@@H](O)c2cc(-c3ncnc4cc(N5CCOCC5)ccc34)c(F)cc2Cl)nn1 | 97.7% and 102% and 99.6% | 101% and 104% and 99.6% | 95.7% and 99% and 96.2% | 93.4% and 89.9% | 67% and 34.4% and 73.9% | 13.7% and 8.86% and 17% | 4570 nM and 2150 nM and 5090 nM |  |  |  |  | outcome (compound 1 µM): inactive
8 | Cc1cc(C)c(CNC(=O)c2cc(-c3ccc(CN4CCOCC4)cc3)cc3c2cnn3C2CCCC2)c(=O)[nH]1 | 101% and 99.7% and 102% | 103% and 98.5% and 102% | 99.7% and 106% and 98.5% | 99.8% and 93.7% and 97.1% | 87.3% and 84.7% and 80.8% | 65.2% and 43.9% and 50.7% | > 10000 nM and 8450 nM |  |  |  |  | 
9 | Cc1sc2c(c1C)C(c1ccc(Cl)cc1)=NC(CC(=O)Nc1ccc(O)cc1)c1nnc(C)n1-2 (stereo not given) |  |  |  |  |  |  | 452 nM and 604 nM and 807 nM | 110% and 95.7% and 101% | 87.8% and 91.9% and 91.2% | 65.4% and 75.9% and 82.7% | 8.1% and 7.29% and 14.4% | viability, T/C (compound 0.00949 µM): 104% and 97.9% and 102%; viability, T/C (compound 0.949 µM): 25.2% and 33.3% and 44%
10 | Cn1ncnc1[C@H]1c2n[nH]c(=O)c3cc(F)cc(c23)N[C@@H]1c1ccc(F)cc1 |  |  |  |  |  |  |  | 85.4% and 30.6% and 90.1% | 80.3% and 9.88% and 89.6% | 55.7% and 62.9% and 83.3% | 7.92% and 2.5% and 1.44% | viability, T/C (compound 0.00949 µM): 90.1% and 29.7% and 97.4%
11 | Cn1nnc2c(C(N)=O)ncn2c1=O |  |  |  | 101% [middle of 9 runs] | 101% [middle of 10 runs] | 101% [middle of 10 runs] |  |  |  |  |  | IC50 [1]: > 100000 nM and 17400 nM
12 | O=C(c1cc(Cc2n[nH]c(=O)c3ccccc23)ccc1F)N1CCN(C(=O)C2CC2)CC1 |  |  |  |  |  |  | 2580 nM and 6160 nM and 5100 nM |  | 101% and 95.3% and 103% | 93.6% and 103% | 43.4% and 81.5% and 88.2% | outcome (compound 0.3 µM): inactive; viability, T/C (compound 0.949 µM): 94.8% and 89.4% and 99.4%; viability, T/C (compound 30 µM): 8.7% and 7.95% and 1.92%
13 | [2H]c1nc(C)nc([2H])c1-c1cc(NC[C@@H](C)c2cccc3c(C(=O)NC)ccnc23)ncn1 | 100% and 97.5% and 102% | 99.4% and 97.2% and 100% | 98.4% and 102% and 98.1% | 98.7% and 99.9% and 96.8% | 98.2% and 103% and 95.4% | 92.6% and 102% and 96.8% | > 10000 nM |  |  |  |  | 
